Measured values from PubChem BioAssay AID258 (DTP/NCI, 2004).
Values joined by “and” are separate entries in the source; they are usually repeats but may differ in a detail not shown here. Equal values may be shown once. Inconclusive results and toxic doses are left out.

Tested on: CD2F1 mice, L1210 leukemia sc, survival T/C
Assay: NCI In Vivo Anticancer Drug Screen. Data for tumor model L1210 Leukemia (subcutaneous) in CD2F1 (CDF1) mice
Details: endpoint: median survival time, higher = longer survival
Experimental: The antitumor activity of compounds was measured in mice bearing transplantable tumors. Survival or tumor size were measured and the results are expressed as the measurement made in the treated group (T) divided by the measurement made in the vehicle treated control group (C). The tumor model used in this assay is L1210 Leukemia (subcutaneous) in CD2F1 (CDF1) mice

COc1cccc2c1C(=O)c1c(O)c3c(c(O)c1C2=O)CC(O)(C(C)=O)CC3OC1CC(N)C(O)C(C)O1 (stereo not drawn)
T/C (dose: 2.9 mg/kg/injection, schedule: Q01DX009 (ip), vehicle: saline): 96 % of control
T/C (dose: 5.8 mg/kg/injection, schedule: Q01DX009 (ip), vehicle: saline): 96 % of control
T/C (dose: 11.7 mg/kg/injection, schedule: Q01DX009 (ip), vehicle: saline): 98 % of control
T/C (dose: 23.4 mg/kg/injection, schedule: Q01DX009 (ip), vehicle: saline): 103 % of control
T/C (dose: 46.8 mg/kg/injection, schedule: Q01DX009 (ip), vehicle: saline): 108 % of control

C[C@@](O)(/C=C/[C@H]1CC=CC(=O)O1)[C@@H](C[C@@H](O)\C=C/C=C\C=C\CO)OP(=O)(O)O
T/C (dose: 0.78 mg/kg/injection, schedule: Q01DX009 (ip), vehicle: other): 104 % of control
T/C (dose: 1.56 mg/kg/injection, schedule: Q01DX009 (ip), vehicle: other): 116 % of control
T/C (dose: 3.13 mg/kg/injection, schedule: Q01DX009 (ip), vehicle: other): 157 % of control
T/C (dose: 6.25 mg/kg/injection, schedule: Q01DX009 (ip), vehicle: other): 197 % of control

CN(C)c1ccc(/C=C2\C=Cc3ccccc32)cc1
T/C (dose: 39.0 mg/kg/injection, schedule: Q01DX Z (sc), vehicle: carboxymethylcellulose (CMC)): 100 % of control
T/C (dose: 65.0 mg/kg/injection, schedule: Q01DX Z (sc), vehicle: carboxymethylcellulose (CMC)): 100 % of control
T/C (dose: 108.0 mg/kg/injection, schedule: Q01DX Z (sc), vehicle: carboxymethylcellulose (CMC)): 100 % of control
T/C (dose: 180.0 mg/kg/injection, schedule: Q01DX Z (sc), vehicle: carboxymethylcellulose (CMC)): 100 % of control
T/C (dose: 300.0 mg/kg/injection, schedule: Q01DX Z (sc), vehicle: carboxymethylcellulose (CMC)): 100 % of control

COc1ccc2[nH]c3ccc4cc[n+](CCN5CCC(C6CCN(CC[n+]7ccc8ccc9[nH]c%10ccc(OC)cc%10c9c8c7)CC6)CC5)cc4c3c2c1
T/C (dose: 6.9 mg/kg/injection, schedule: Q01DX009 (ip), vehicle: water): 104 % of control
T/C (dose: 11.5 mg/kg/injection, schedule: Q01DX009 (ip), vehicle: water): 107 % of control
T/C (dose: 12.5 mg/kg/injection, schedule: Q01DX009 (ip), vehicle: Klucel (hydroxypropylcellulose) (HPC)): 204 % of control and 93 % of control
T/C (dose: 32.0 mg/kg/injection, schedule: Q01DX009 (ip), vehicle: water): 107 % of control
T/C (dose: 50.0 mg/kg/injection, schedule: Q01DX009 (ip), vehicle: Klucel (hydroxypropylcellulose) (HPC)): 340 % of control

O=C(NO)c1cc(O)c(O)c(O)c1
T/C (dose: 25.0 mg/kg/injection, schedule: Q01DX009 (ip), vehicle: distilled water + Tween-80): 97 % of control and 100 % of control
T/C (dose: 50.0 mg/kg/injection, schedule: Q01DX009 (ip), vehicle: distilled water + Tween-80): 104 % of control
T/C (dose: 100.0 mg/kg/injection, schedule: Q01DX009 (ip), vehicle: distilled water + Tween-80): 100 % of control and 102 % of control
T/C (dose: 200.0 mg/kg/injection, schedule: Q01DX009 (ip), vehicle: distilled water + Tween-80): 124 % of control
T/C (dose: 400.0 mg/kg/injection, schedule: Q01DX009 (ip), vehicle: distilled water + Tween-80): 90 % of control

O=C1NC(=O)C2C3C=CC(C12)C1C2C(=O)NC(=O)C2C31 (stereo not drawn)
T/C (dose: 3.0 mg/kg/injection, schedule: Q01DX005 (iv), vehicle: other): 108 % of control
T/C (dose: 6.0 mg/kg/injection, schedule: Q01DX005 (ip), vehicle: other): 111 % of control
T/C (dose: 6.0 mg/kg/injection, schedule: Q01DX005 (iv), vehicle: other): 104 % of control
T/C (dose: 6.0 mg/kg/injection, schedule: Q01DX005 (sc), vehicle: other): 105 % of control
T/C (dose: 12.0 mg/kg/injection, schedule: Q01DX005 (ip), vehicle: other): 104 % of control
T/C (dose: 12.0 mg/kg/injection, schedule: Q01DX005 (iv), vehicle: other): 104 % of control and 107 % of control
T/C (dose: 12.0 mg/kg/injection, schedule: Q01DX005 (sc), vehicle: other): 108 % of control
T/C (dose: 12.0 mg/kg/injection, schedule: Q01DX009 (ip), vehicle: other): 115 % of control
T/C (dose: 14.0 mg/kg/injection, schedule: Q01DX009 (ip), vehicle: water): 110 % of control
T/C (dose: 17.2 mg/kg/injection, schedule: Q01DX005 (iv), vehicle: other): 107 % of control
T/C (dose: 17.2 mg/kg/injection, schedule: Q01DX009 (ip), vehicle: other): 122 % of control
T/C (dose: 18.0 mg/kg/injection, schedule: Q01DX009 (ip), vehicle: clinical formulation): 121 % of control
T/C (dose: 24.5 mg/kg/injection, schedule: Q01DX005 (iv), vehicle: other): 110 % of control
T/C (dose: 25.0 mg/kg/injection, schedule: Q01DX005 (ip), vehicle: other): 113 % of control
T/C (dose: 25.0 mg/kg/injection, schedule: Q01DX005 (ip), vehicle: saline with Tween-80): 105 % of control
T/C (dose: 25.0 mg/kg/injection, schedule: Q01DX005 (sc), vehicle: other): 114 % of control
T/C (dose: 30.0 mg/kg/injection, schedule: Q01DX009 (ip), vehicle: clinical formulation): 150 % of control
T/C (dose: 38.9 mg/kg/injection, schedule: Q01DX009 (ip), vehicle: water): 203 % of control
T/C (dose: 50.0 mg/kg/injection, schedule: Q01DX005 (ip), vehicle: other): 164 % of control
T/C (dose: 50.0 mg/kg/injection, schedule: Q01DX005 (iv), vehicle: other): 160 % of control and 175 % of control
T/C (dose: 50.0 mg/kg/injection, schedule: Q01DX005 (oral), vehicle: other): 105 % of control
T/C (dose: 50.0 mg/kg/injection, schedule: Q01DX005 (sc), vehicle: other): 152 % of control
T/C (dose: 50.0 mg/kg/injection, schedule: Q01DX009 (ip), vehicle: clinical formulation): 192 % of control
T/C (dose: 50.0 mg/kg/injection, schedule: Q01DX009 (ip), vehicle: other): 166 % of control
T/C (dose: 64.8 mg/kg/injection, schedule: Q01DX009 (ip), vehicle: water): 291 % of control
T/C (dose: 71.4 mg/kg/injection, schedule: Q01DX005 (iv), vehicle: other): 247 % of control
T/C (dose: 71.4 mg/kg/injection, schedule: Q01DX009 (ip), vehicle: other): 250 % of control
T/C (dose: 83.3 mg/kg/injection, schedule: Q01DX009 (ip), vehicle: clinical formulation): 106 % of control
T/C (dose: 100.0 mg/kg/injection, schedule: Q01DX005 (ip), vehicle: saline with Tween-80): 204 % of control
T/C (dose: 100.0 mg/kg/injection, schedule: Q01DX005 (oral), vehicle: other): 108 % of control
T/C (dose: 100.0 mg/kg/injection, schedule: Q01DX005 (sc), vehicle: other): 89 % of control
T/C (dose: 200.0 mg/kg/injection, schedule: Q01DX005 (oral), vehicle: other): 113 % of control
T/C (dose: 252.0 mg/kg/injection, schedule: Q01DX009 (oral), vehicle: other): 171 % of control
T/C (dose: 378.0 mg/kg/injection, schedule: Q01DX009 (oral), vehicle: other): 162 % of control
T/C (dose: 400.0 mg/kg/injection, schedule: Q01DX005 (oral), vehicle: other): 108 % of control
T/C (dose: 800.0 mg/kg/injection, schedule: Q01DX005 (oral), vehicle: other): 229 % of control
T/C (dose: 850.0 mg/kg/injection, schedule: Q01DX009 (oral), vehicle: other): 182 % of control
T/C (dose: 1274.0 mg/kg/injection, schedule: Q01DX009 (oral), vehicle: other): 225 % of control

C[C@]12CCC(=O)C=C1CC[C@@H]1[C@@H]2[C@@H](O)C[C@@]2(C)[C@H]1CC[C@]2(O)C(=O)CO
T/C (dose: 300.0 mg/kg/injection, schedule: Q01DX Z (sc), vehicle: methylcellulose (MC)): 115 % of control

CCOC(=O)NP(=O)(N1CC1)N1CC1
T/C (dose: 14.0 mg/kg/injection, schedule: Q01DX Z (sc), vehicle: water): 172 % of control
T/C (dose: 23.0 mg/kg/injection, schedule: Q01DX Z (sc), vehicle: water): 161 % of control

CO[C@@]12[C@H](COC(N)=O)C3=C(C(=O)C(C)=C(N)C3=O)N1C[C@@H]1N[C@@H]12
T/C (dose: 0.7 mg/kg/injection, schedule: Q01DX Z (sc), vehicle: saline): 100 % of control
T/C (dose: 1.17 mg/kg/injection, schedule: Q01DX Z (sc), vehicle: saline): 100 % of control
T/C (dose: 1.95 mg/kg/injection, schedule: Q01DX Z (sc), vehicle: saline): 100 % of control
T/C (dose: 3.25 mg/kg/injection, schedule: Q01DX Z (sc), vehicle: saline): 108 % of control
T/C (dose: 9.03 mg/kg/injection, schedule: Q01DX Z (sc), vehicle: saline): 116 % of control

ONc1ncnc2nc[nH]c12
T/C (dose: 50.0 mg/kg/injection, schedule: Q01DX Z (sc), vehicle: steriod suspending solution): 112 % of control
T/C (dose: 100.0 mg/kg/injection, schedule: Q01DX Z (sc), vehicle: steriod suspending solution): 118 % of control
T/C (dose: 400.0 mg/kg/injection, schedule: Q01DX Z (sc), vehicle: steriod suspending solution): 168 % of control
